Source: US20250281449A1, “NITROGEN-CONTAINING ANALOGS OF SALINOMYCIN FOR USE IN MULTIPLE MYELOMA (MM)” (Centre National de la Recherche Scientifique, priority 2021, published 2025)
Entries after “also recorded” stand apart in the source; their conditions may differ.

Legend:
Format in all cases: cell-based, human
[1] = tested on: H3K36me3; assay: Western blot of histone methylation; details: 24H
Description: (§1) Cells were treated with iron chelators (80 μM Deferasirox), and Ironomycin (IC50 and 200 nM) during 24H. Protein levels of MMSET (isoforms I and II), MYC, H3K36me3 and H3K27me3 were analyzed by western blot. MMSET (isoforms I and II) and MYC signal were normalized by α-tubulin protein level, H3K36me3 and H3K27me3 signal were normalized by total histone 3 protein level.
(§2) The total cell lysates were obtained with RIPA 1× lysis buffer (#9806, Cell Signaling®) according with the supplier recommendations.
(§3) Protein lysates migrate on 10% polyacrylamide gel (NP-0301, Novex, Life Technologies®), in MOPS 1× running buffer (NP0001, Novex, Life Technologies®) or MES 1× running buffer NP-0002, Novex, Life Technologies®) and proteins are transferred to nitrocellulose membrane (1B301001, I-Blot Transfert Starck, NuPAGE, Life Technologies®). The primary antibodies mouse-anti-phospho-Histone H2A.X (Ser139) clone JBW301 ( 1/1000, Merck Millipore), anti-H3K36me3 (#ab9050, abcam®), anti-H3K27me3 (#9733, Cell Signaling®), anti-MMSET (#65127, Cell Signaling® et ab75359, abcam), anti-MYC (#5605, Cell Signaling®) were incubated in TBS-Tween 20 0.1% (Tris-Buffered Saline, pH 7.4) with 5% non-fat milk or Bovine serum albumin (Sigma-Aldrich, A7906). […] Quantification of protein levels was performed with Image J® software (National Institutes of Health, Bethesda, MD, USA).

[2] = tested on: MYC; assay: Western blot of MYC protein level; details: 24H
Description: as §1, §2, §3

[3] = tested on: non-MM cells; assay: Assay on primary samples of patients, non-MM cells (flow cytometry)
Description: Primary MM cells were treated with Ironomycin (A) or AM-23 (B) and incubated during 96H with IL-6. The toxicity on MM cells and non-MM cells was analyzed by flow cytometry and expressed in % of control.
Bone marrow samples were collected after patients' written informed consent in accordance with the Declaration of Helsinki and institutional research board approval from Montpellier University hospital. Cells are obtained from […] of 5 patients with MM. Cells are obtained by density gradient separation and qualified by Flow cytometry.
Cells are cultured in Gibco® RPMI-1640 (Glutamax) medium (#6187-010) with 10% FBS at a density of 0.5×10^6 Cell/mL with 2 ng/mL of interleukin-6. Cells are seeded 24H after thawing and treated with various compounds during 72H.
Total cells were counted with trypan blue and stained with the panel CD38-APC, CD138-PE (Beckman coulter) and analyzed by flow cytometry (Fortessa cytometer, BD Pharmigen). Tumorous MM cells were gated on CD38+ and CD138+.

[4] = tested on: MM cell lines; assay: Cell growth inhibition in panel of MM cell lines; details: 96H
Description: The panel of 17 HMCL cell lines were incubated with increasing concentrations of Ironomycin (A), AM23 (B) or vehicle for 96H.
HMCL cell lines were cultured for 4 days in 96-well flat-bottom microtiter plates in RPMI 1640 medium or DMEM medium, 10% or 20% FCS (control medium) in the presence of various compounds. The number of viable cells in culture was determined using the Cell Titer-Glo Luminescent Cell Viability Assay from Promega, Madison, WI, USA using a Centro LB 960 luminometer (Berthold Technologies, Bad Wildbad, Germany).
This test is based on quantitation of the intracellular ATP present, which signals the presence of metabolically active cells. Data are expressed as the mean percentage of six replicates, normalized to the untreated control.
The therapeutic interest of iron metabolism inhibitors AM5 (Ironomycin) and AM23 was further investigated using large collection of 18 MM cell lines (Moreaux J et al. Haematologica 2011; Vikova V et al. Theranostics 2019). The IC50 of Ironomycin and AM23 respectively are illustrated in the Table 5 hereunder: […]

[5] = tested on: XG-1, XG-7 and OPM-2 cell lines; assay: Apoptosis induction (Annexin V staining or PARP-cleavage, flow cytometry); details: IC50 of ironomycin, 72H
Description: XG-1, XG-7 and OPM-2 cell lines were treated with IC50 of ironomycin during 72H. Apoptosis induction was monitored by Annexin V staining (XG-1 and XG-7) or PARP-cleavage and analyzed by flow cytometry (A).
Annexin V-PE staining for apoptosis analysis was performed using the “PE Annexin V Apoptosis Detection Kit I” (559763, Becton Dickinson).
The cell cycle progression was studied by flow cytometry using the Apoptosis, DNA Damage, and Cell Proliferation Kit (562253, Becton Dickinson). Briefly, cells were labeled with bromodeoxyuridine (BrdU), an analog of the DNA precursor thymidine that can be incorporated into newly synthesized DNA and detected with an antibody against BrdU to measure cell proliferation. After this labeling, the cells were fixed, permeabilized and treated with DNase to expose the BrdU epitopes. Following this treatment, cells were simultaneously stained with fluorochrome-labeled anti-BrdU, anti-cleaved Poly A DP-ribose polymerase 1 (PARP), anti-H2AX phosphorylated at serine 139. They were also stained with DAPI to determine DNA content. Finally, cells were resuspended in staining buffer and analyzed by flow cytometry (Fortessa, Becton Dickinson).

`C#CCN[C@@H]1C=C[C@]2(O[C@H]([C@@H](CC)C(=O)[C@@H](C)[C@@H](O)[C@H](C)[C@@H]3O[C@@H]([C@@H](CC)C(=O)O)CC[C@@H]3C)[C@@H](C)C[C@H]2C)O[C@@]12CC[C@@](C)([C@H]1CC[C@](O)(CC)[C@H](C)O1)O2` [Ironomycin] was tested, and the H3K36 methylation [1] was “significant deregulation of H3K36 methylation”, the MYC protein expression [2] was “significant downregulation” and the “toxicity for non-tumoral cells” value [3] was “without significant toxicity”. For the same compound, the “cell growth inhibition / toxicity on MM cell lines” value [4] was “significant cell growth inhibition; also recorded: kill MM cells with nanomolar concentration” and the apoptosis induction [5] was “induces apoptosis”.
